# Reference: US11530244B2, “Cyclic polypeptides for PCSK9 inhibition” (priority 2018, dated 2022)
# Starred links: 1 amine or outer side, 2 acyl side, 3 side chain; linkers in the order of their positions; H or OH if unused. Positions of bridges follow the written chain, without caps; N, C: chain ends. Non-standard residues stand in square brackets, D forms with d. Residues, ends and D or L forms follow the SMILES beside them. Groups on a side chain read outwards from the residue. *: point of attachment. X50 = C[C@@H](N[*:1])C(=O)C[C@@H](Cc1c[nH]c2ccc(F)cc12)C(=O)[*:2]; NHCH2C6H4(p)CH2CH2NH = c1cc(CN[*:1])ccc1CCN[*:2]; Trp(5-F) = N[C@@H](Cc1c[nH]c2ccc(F)cc12)C(=O)O; Phe(4-CH2NH2) = NCc1ccc(C[C@H](N)C(=O)O)cc1; X45 = O=C(CCC(=O)[*:1])NCc1ccc(CCN[*:2])cc1; Pro(cis-4-F) = O=C(O)[C@@H]1C[C@H](F)CN1; X4 = O=C(CCSCc1cccc(CSCCN[*:1])c1)[*:2]; γGlu = O=C(O)[C@H](CCC(=O)[*:2])N[*:1]; Propanoyl(3,3,3-F3) = O=C(CC(F)(F)F)*; mXylylene = c1cc(C[*:1])cc(C[*:2])c1; AEF = NCCOc1ccc(C[C@H](N)C(=O)O)cc1; Palmitoyl = CCCCCCCCCCCCCCCC(=O)*; X46 = O=C(C[*:2])NCCCCC(=O)[*:1]; aThr = C[C@H](O)[C@H](N)C(=O)O; Suc = O=C(CCC(=O)[*:2])[*:1]; αMeP = C[C@@]1(C(=O)O)CCCN1; AEEA = NCCOCCOCC(=O)O; Piv = CC(C)(C)C(=O)*; Propionyl = CCC(=O)*; X28 = CC(C)(F)C(=O)*; Glycolyl = O=C(CO)*; X37 = O=C(CC1CC1)*; Mpa = O=C(O)CCS
# Experiments:
# [1] = biological target: T1, PCSK9 (Homo sapiens (Human), UniProt Q8NBP7); experiment: PCSK9 Alexa FRET Plus assay (displacement of AlexaFluor647 tagged cyclic peptide Reagent B); type: binding; conditions: 0.5 nM PCSK9, 960 nM AF cyclic peptide Reagent B
# T1 sequence (Q8NBP7 153-692): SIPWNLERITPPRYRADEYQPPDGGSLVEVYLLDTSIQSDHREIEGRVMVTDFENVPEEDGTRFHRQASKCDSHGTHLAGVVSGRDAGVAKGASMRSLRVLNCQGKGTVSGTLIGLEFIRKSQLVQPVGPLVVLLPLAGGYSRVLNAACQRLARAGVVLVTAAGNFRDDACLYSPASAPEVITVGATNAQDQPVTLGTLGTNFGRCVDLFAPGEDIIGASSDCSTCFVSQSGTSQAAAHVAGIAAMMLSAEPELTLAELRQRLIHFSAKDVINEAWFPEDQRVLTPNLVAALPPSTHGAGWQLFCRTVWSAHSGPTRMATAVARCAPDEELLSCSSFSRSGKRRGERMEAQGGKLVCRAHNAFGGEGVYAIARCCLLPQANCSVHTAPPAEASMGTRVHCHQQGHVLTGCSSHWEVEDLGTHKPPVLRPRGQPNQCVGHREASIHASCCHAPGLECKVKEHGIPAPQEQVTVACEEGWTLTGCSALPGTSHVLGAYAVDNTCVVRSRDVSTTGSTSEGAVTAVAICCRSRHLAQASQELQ
# Protocol: A solution containing 1 nM biotinylated PCSK9+2.5 nM Lance Streptavidin Europium (Strep-Eu) was made in 50 mM HEPES pH 7.4, 0.15 M NaCl, 5 mM CaCl2), 0.01% BSA, and 0.01% Surfactant P20. A separate solution containing 1920 nM of the AlexaFluor tagged cyclic peptide was made in the same buffer system. An Echo was used to transfer 0.075 ul of compound plus 0.675 ul of DMSO to each well of an assay plate followed by the addition of 15 ul of PCSK9+Stept-Eu and 15 ul of AF peptide. The final assay volume was 30.750 ul containing 0.5 nM PCSK9, 1.25 nM Strep-Eu, and 960 nM AF cyclic peptide. The reaction was incubated at room temperature for at least two hours prior to fluorescence measurements using an Envision Multilabel Reader. IC50 values were determined by fitting data to a sigmoidal dose-response curve using nonlinear regression. Ki was then calculated from the IC50 and the KD of AF cyclic peptide. Counts (B-counts) of the europium-labeled PCSK9 were followed to observe if compounds were adversely affecting PCSK9. A fall off of the B-counts likely indicated a false positive of inhibition. Data from this procedure was reported as “P=‘numerical value’ (nanomolar)”
# [2] = biological target: T1, PCSK9; experiment: PCSK9 Alexa FRET Standard assay (displacement of AlexaFluor647 tagged cyclic peptide Reagent A); type: binding; conditions: PCSK9 Alexa FRET Standard assay, 0.5 nM PCSK9, 20 nM AF cyclic peptide Reagent A; read-out: IC50
# How it was run: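 TR-FRET displacement: 0.5 nM biotinylated PCSK9 with 1.25 nM Strep-Eu and 20 nM AlexaFluor-tagged cyclic peptide (final) in 50 mM HEPES pH 7.4, 0.15 M NaCl, 5 mM CaCl2, 0.01% BSA, 0.01% P20, ≥2 h at room temperature. IC50 from sigmoidal fit, converted to Ki via peptide KD; falling Eu counts flagged false positives.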
# [3] = Alexa FRET Plus, read-out: IC50
smiles,measurement,setting,value
COc1ccc(C[C@@H]2NC(=O)[C@H]([C@@H](C)O)NC(=O)[C@@H]3C[C@H](F)CN3C(=O)[C@H](Cc3c[nH]c4ccc(F)cc34)NC(=O)[C@H](Cc3c[nH]c4ccc(F)cc34)NC(=O)[C@@H](C)NC(=O)[C@H](CCCCN)NC(=O)[C@@H](NC(C)=O)CC(=O)NCc3ccc(cc3)CCNC(=O)[C@]3(C)CCCN3C2=O)cc1 [Compound 095] (Ac-DK[dA][Trp(5-F)][Trp(5-F)][Pro(cis-4-F)]TY(Me)[αMeP]; linker 1-C via NHCH2C6H4(p)CH2CH2NH),IC50,[1]; [3],500 to 5000 nM
same,IC50,[2],100 to 1000 nM
COc1ccc(C[C@@H]2NC(=O)[C@H]([C@@H](C)O)NC(=O)[C@@H]3C[C@H](F)CN3C(=O)[C@H](Cc3c[nH]c4ccc(F)cc34)NC(=O)[C@H](Cc3c[nH]c4ccc(F)cc34)NC(=O)[C@@H](C)NC(=O)[C@H](CCCCN)NC(=O)CCC(=O)NCc3ccc(cc3)C[C@@H](C(N)=O)NC(=O)[C@]3(C)CCCN3C2=O)cc1 [Compound 097] (K[dA][Trp(5-F)][Trp(5-F)][Pro(cis-4-F)]TY(Me)[αMeP][Phe(4-CH2NH2)]-NH2; linker N-9 via Suc),IC50,[1]; [3],500 to 5000 nM
same,IC50,[2],0.11 to 100 nM
CCCCCCCCCCCCCCCC(=O)N[C@@H](CCC(=O)NCCOCCOCC(=O)NCCOCCOCC(=O)NCCCC[C@@H]1NC(=O)[C@H](Cc2c[nH]c3ccc(F)cc23)NC(=O)[C@H](Cc2c[nH]c3ccc(F)cc23)CC(=O)[C@@H](C)NC(=O)[C@H](CCCCN)NC(=O)CCSCc2cccc(c2)CSC[C@@H](C(N)=O)NC(=O)[C@]2(C)CCCN2C(=O)[C@H](Cc2ccc(O)cc2)NC(=O)[C@H]([C@@H](C)O)NC1=O)C(=O)O [Compound 101] ([Mpa]K[X50][Trp(5-F)]K([AEEA-AEEA-γGlu-Palmitoyl])TY[αMeP]C-NH2; linker 1-9 via mXylylene),IC50,[1]; [3],100 to 500 nM
same,IC50,[2],0.11 to 100 nM
COc1ccc(C[C@@H]2NC(=O)[C@H]([C@@H](C)O)NC(=O)[C@@H]3C[C@H](F)CN3C(=O)[C@H](Cc3c[nH]c4ccc(F)cc34)NC(=O)[C@H](Cc3c[nH]c4ccc(F)cc34)NC(=O)[C@@H](C)NC(=O)CNC(=O)[C@@H](NC(C)=O)CCNCc3ccc(cc3)C[C@@H](C(N)=O)NC(=O)[C@]3(C)CCCN3C2=O)cc1 [Compound 102],IC50,"[1]; IC50, Alexa FRET Plus",500 to 5000 nM
same,IC50,[2],0.11 to 100 nM
COc1ccc(C[C@@H]2NC(=O)[C@H]([C@H](C)O)NC(=O)[C@H]3CCCN3C(=O)[C@H](Cc3c[nH]c4ccc(F)cc34)NC(=O)[C@H](Cc3c[nH]c4ccc(F)cc34)NC(=O)[C@@H](C)NC(=O)[C@H](CCCCN)NC(=O)CCSCc3cccc(c3)CSCCNC(=O)[C@]3(C)CCCN3C2=O)cc1 [Compound 103] (cyclo(K[dA][Trp(5-F)][Trp(5-F)][dP][aThr]Y(Me)[αMeP][X4])),IC50,[1]; [3],500 to 5000 nM
same,IC50,[2],0.11 to 100 nM
COc1ccc(C[C@@H]2NC(=O)[C@H]([C@@H](C)O)NC(=O)[C@@H]3C[C@H](F)CN3C(=O)[C@H](Cc3c[nH]c4ccc(F)cc34)NC(=O)[C@H](Cc3c[nH]c4ccc(F)cc34)NC(=O)[C@@H](C)NC(=O)[C@H](CCCCN)NC(=O)[C@@H](NC(=O)CC3CC3)CC(=O)NCCOc3ccc(cc3)C[C@@H](C(N)=O)NC(=O)[C@]3(C)CCCN3C2=O)cc1 [Compound 108] (X37-DK[dA][Trp(5-F)][Trp(5-F)][Pro(cis-4-F)]TY(Me)[αMeP][AEF]-NH2; lactam 1-10),IC50,[1]; [3],500 to 5000 nM
same,IC50,[2],0.11 to 100 nM
C[C@@]12CCCN1C(=O)[C@H](Cc1ccc(O)cc1)NC(=O)CN1C(=O)[C@@H](CCc3ccccc31)NC(=O)[C@H](Cc1c[nH]c3ccc(F)cc13)NC(=O)[C@H](Cc1c[nH]c3ccc(F)cc13)NC(=O)CNC(=O)[C@H](CCCCN)NC(=O)CCSCc1cccc(c1)CSC[C@@H](C(N)=O)NC2=O [Compound 109],IC50,[1]; [3],100 to 500 nM
same,IC50,[2],0.11 to 100 nM
COc1ccc(C[C@@H]2NC(=O)[C@H]([C@H](C)O)NC(=O)[C@@H]3C[C@H](F)CN3C(=O)[C@H](Cc3c[nH]c4ccc(F)cc34)NC(=O)[C@H](Cc3c[nH]c4ccc(F)cc34)NC(=O)[C@@H](C)NC(=O)[C@H](CCCCN)NC(=O)CCC(=O)NCc3ccc(cc3)CCNC(=O)[C@]3(C)CCCN3C2=O)cc1 [Compound 111] (K[dA][Trp(5-F)][Trp(5-F)][Pro(cis-4-F)][aThr]Y(Me)[αMeP]; linker N-C via X45),IC50,"[1]; IC50, Alexa FRET Plus",0.1 to 100 nM
same,IC50,[2],0.11 to 100 nM
COc1ccc(C[C@@H]2NC(=O)[C@H]([C@@H](C)O)NC(=O)[C@@H]3C[C@H](F)CN3C(=O)[C@H](Cc3c[nH]c4ccc(F)cc34)NC(=O)[C@H](Cc3c[nH]c4ccc(F)cc34)NC(=O)[C@@H](C)NC(=O)[C@H](CCCCN)NC(=O)[C@@H](NC(=O)C(C)(C)F)CC(=O)NCCOc3ccc(cc3)C[C@@H](C(N)=O)NC(=O)[C@]3(C)CCCN3C2=O)cc1 [Compound 112] (X28-DK[dA][Trp(5-F)][Trp(5-F)][Pro(cis-4-F)]TY(Me)[αMeP][AEF]-NH2; lactam 1-10),IC50,[1]; [3],100 to 500 nM
same,IC50,[2],0.11 to 100 nM
"COc1ccc(C[C@@H]2NC(=O)[C@H]([C@@H](C)O)NC(=O)[C@@H]3C[C@H](F)CN3C(=O)[C@H](Cc3c[nH]c4ccc(F)cc34)NC(=O)[C@H](Cc3c[nH]c4ccc(F)cc34)NC(=O)[C@@H](C)NC(=O)[C@H](CCCCN)NC(=O)[C@@H](NC(=O)CC(F)(F)F)CC(=O)NCCOc3ccc(cc3)C[C@@H](C(N)=O)NC(=O)[C@]3(C)CCCN3C2=O)cc1 [Compound 114] ({Propanoyl(3,3,3-F3)}-DK[dA][Trp(5-F)][Trp(5-F)][Pro(cis-4-F)]TY(Me)[αMeP][AEF]-NH2; lactam 1-10)",IC50,[1]; [3],500 to 5000 nM
same,IC50,[2],21000 to 50000 nM
COc1ccc(C[C@@H]2NC(=O)[C@H]([C@@H](C)O)NC(=O)[C@@H]3C[C@H](F)CN3C(=O)[C@H](Cc3c[nH]c4ccc(F)cc34)NC(=O)[C@H](Cc3c[nH]c4ccc(F)cc34)NC(=O)[C@@H](C)NC(=O)[C@H](CCCCN)NC(=O)[C@@H](NC(=O)CO)CC(=O)NCCOc3ccc(cc3)C[C@@H](C(N)=O)NC(=O)[C@]3(C)CCCN3C2=O)cc1 [Compound 115] (Glycolyl-DK[dA][Trp(5-F)][Trp(5-F)][Pro(cis-4-F)]TY(Me)[αMeP][AEF]-NH2; lactam 1-10),IC50,[1]; [3],500 to 5000 nM
same,IC50,[2],100 to 1000 nM
COc1ccc(C[C@@H]2NC(=O)[C@H]([C@@H](C)O)NC(=O)[C@@H]3C[C@H](F)CN3C(=O)[C@H](Cc3c[nH]c4ccc(F)cc34)NC(=O)[C@H](Cc3c[nH]c4ccc(F)cc34)NC(=O)[C@@H](C)NC(=O)[C@H](CCCCN)NC(=O)[C@@H](NC(=O)CO)CC(=O)NCCOc3ccc(cc3)C[C@@H](C(N)=O)NC(=O)[C@]3(C)CCCN3C2=O)cc1 [Compound 116] (Glycolyl-DK[dA][Trp(5-F)][Trp(5-F)][Pro(cis-4-F)]TY(Me)[αMeP][AEF]-NH2; lactam 1-10),IC50,[1]; [3],500 to 5000 nM
same,IC50,[2],21000 to 50000 nM
COc1ccc(C[C@@H]2NC(=O)[C@H]([C@@H](C)O)NC(=O)[C@@H]3C[C@H](F)CN3C(=O)[C@H](Cc3c[nH]c4ccc(F)cc34)NC(=O)[C@H](Cc3c[nH]c4ccc(F)cc34)NC(=O)[C@@H](C)NC(=O)[C@H](CCCCN)NC(=O)CCCCNC(=O)COc3ccc(cc3)C[C@@H](C(N)=O)NC(=O)[C@]3(C)CCCN3C2=O)cc1 [Compound 117] (K[dA][Trp(5-F)][Trp(5-F)][Pro(cis-4-F)]TY(Me)[αMeP]Y-NH2; linker N-9 via X46),IC50,[1]; [3],500 to 5000 nM
same,IC50,[2],0.11 to 100 nM
CCC(=O)N[C@H]1CC(=O)NCCOc2ccc(cc2)C[C@@H](C(N)=O)NC(=O)[C@]2(C)CCCN2C(=O)[C@H](Cc2ccc(OC)cc2)NC(=O)[C@H]([C@@H](C)O)NC(=O)[C@@H]2C[C@H](F)CN2C(=O)[C@H](Cc2c[nH]c3ccc(F)cc23)NC(=O)[C@H](Cc2c[nH]c3ccc(F)cc23)NC(=O)[C@@H](C)NC(=O)[C@H](CCCCN)NC1=O [Compound 118] (Propionyl-DK[dA][Trp(5-F)][Trp(5-F)][Pro(cis-4-F)]TY(Me)[αMeP][AEF]-NH2; lactam 1-10),IC50,[1]; [3],500 to 5000 nM
same,IC50,[2],21000 to 50000 nM
COc1ccc(C[C@@H]2NC(=O)[C@H]([C@@H](C)O)NC(=O)[C@@H]3C[C@H](F)CN3C(=O)[C@H](Cc3c[nH]c4ccc(F)cc34)NC(=O)[C@H](Cc3c[nH]c4ccc(F)cc34)NC(=O)[C@@H](C)NC(=O)[C@H](CCCCN)NC(=O)[C@@H](NC(=O)C(C)(C)C)CC(=O)NCCOc3ccc(cc3)C[C@@H](C(N)=O)NC(=O)[C@]3(C)CCCN3C2=O)cc1 [Compound 119] (Piv-DK[dA][Trp(5-F)][Trp(5-F)][Pro(cis-4-F)]TY(Me)[αMeP][AEF]-NH2; lactam 1-10),IC50,[1]; [3],500 to 5000 nM
same,IC50,[2],21000 to 50000 nM
